Data from patent US11339171B2, “MDM2 inhibitors” (Gan & Lee Pharmaceuticals, priority 2017, dated 2022).

Experiments:
[1] = system: human osteosarcoma cell line SJSA-1; assay: Inhibition of proliferation of human osteosarcoma cell line SJSA-1 (DAPI staining, In Cell Analyzer); settings: for inhibitory effect on human osteosarcoma cell line SJSA-1 compared with positive control compound HDM201: labels are Example numbers, the compounds with S-configuration are meant; for IC50: Homo sapiens, SJSA-1, 72 h, read-out: IC50 (nM), inhibitory activity on proliferation of human osteosarcoma cell line SJSA-1, SJSA-1, incubated 72 h
MDM2 = molecular target: T1, MDM2 (Homo sapiens, UniProt Q00987); assay: Inhibition test of MDM2-P53 (GST-MDM2, Biotin-P53, Anti-GST-Tb, SA-XL665); format: binding; settings: for inhibitory effect on MDM2 compared with positive control compound HDM201: labels are Example numbers, the compounds with S-configuration are meant
T1 construct: made in house
Method in brief: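 HTRF-type assay using 4 nM GST-MDM2 (final), Biotin-P53, SA-XL665 and anti-GST-Tb in PBS with 0.1% BSA, 5 mM DTT and 1 mM AEBSF. Compounds in 5-fold serial dilutions over twelve points; incubation 90 min at 25° C with shaking before plate-reader read-out.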

T1 sequence (Q00987 whole entry): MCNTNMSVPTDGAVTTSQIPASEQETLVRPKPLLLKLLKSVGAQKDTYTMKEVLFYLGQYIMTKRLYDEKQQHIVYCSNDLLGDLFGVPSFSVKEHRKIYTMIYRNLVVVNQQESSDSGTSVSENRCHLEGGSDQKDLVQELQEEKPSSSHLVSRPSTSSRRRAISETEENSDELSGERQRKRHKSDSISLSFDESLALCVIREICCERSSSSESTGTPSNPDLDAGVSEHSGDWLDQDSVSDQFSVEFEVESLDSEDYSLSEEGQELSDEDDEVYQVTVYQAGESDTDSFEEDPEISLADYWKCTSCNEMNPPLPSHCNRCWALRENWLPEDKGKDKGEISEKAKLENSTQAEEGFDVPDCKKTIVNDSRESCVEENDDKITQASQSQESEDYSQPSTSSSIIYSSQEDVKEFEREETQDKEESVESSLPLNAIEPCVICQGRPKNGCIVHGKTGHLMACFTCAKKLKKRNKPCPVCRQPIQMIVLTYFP

| Compound | inhibitory effect on human osteosarcoma cell line SJSA-1 compared with positive control compound HDM201 [1] | inhibitory effect on MDM2 compared with positive control compound HDM201 (MDM2) | IC50 [1] | IC50 (MDM2) |
| --- | --- | --- | --- | --- |
| COc1cc(C(F)(F)F)ncc1-c1nc2c(n1C(C)C)C1(C(=O)Nc3cc(Cl)ccc31)N(c1cc(Cl)ccc1C)C2=O (stereo not drawn) [Example 138, 6-chloro-5′-(5-chloro-2-methylphenyl)-3′-isopropyl-2′-(4-methoxy-6-(trifluoromethyl)pyridin-3-yl)-3′H-spiro[dihydroindole-3,4′-pyrrolo[3,4-d]imidazole]-2,6′(5′H)-dione] | better | better | – | – |
| CCOc1cc(OC)c(-c2nc3c(n2C(C)C)C2(C(=O)Nc4cc(Cl)ccc42)N(c2cc(F)cc(Cl)c2)C3=O)cn1 (stereo not drawn) [Example 139, 6-chloro-5′-(3-chloro-5-fluorophenyl)-2′-(6-ethoxy-4-methoxypyridin-3-yl)-3′-isopropyl-3′H-spiro[dihydroindole-3,4′-pyrrolo[3,4-d]imidazole]-2,6′(5′H)-dione] | better | better | – | – |
| COc1cc(C2CC2)ncc1-c1nc2c(n1C(C)C)C1(C(=O)Nc3cc(Cl)ccc31)N(c1cc(Cl)cnc1C)C2=O (stereo not drawn) [Example 143, 6-chloro-5′-(5-chloro-2-methylpyridin-3-yl)-2′-(6-cyclopropyl-4-methoxypyridin-3-yl)-3′-isopropyl-3′H-spiro[dihydroindole-3,4′-pyrrolo[3,4-d]imidazole]-2,6′(5′H)-dione] | better | better | – | – |
| COc1cc(OCC(F)F)ncc1-c1nc2c(n1C(C)C)C1(C(=O)Nc3cc(Cl)ccc31)N(c1cc(Cl)ccc1C)C2=O (stereo not drawn) [Example 153, 6-chloro-5′-(5-chloro-2-methylphenyl)-2′-(6-(2,2-difluoroethoxy)-4-methoxypyridin-3-yl)-3′-isopropyl-3′H-spiro[dihydroindole-3,4′-pyrrolo[3,4-d]imidazole]-2,6′(5′H)-dione] | better | better | – | – |
| COc1cc(C)ncc1-c1nc2c(n1C(C)C)C1(C(=O)Nc3cc(Cl)ccc31)N(c1cc(Cl)ccc1C)C2=O (stereo not drawn) [Example 154, 6-chloro-5′-(5-chloro-2-methylphenyl)-3′-isopropyl-2′-(4-methoxy-6-methylpyridin-3-yl)-3′H-spiro[dihydroindole-3,4′-pyrrolo[3,4-d]imidazole]-2,6′(5′H)-dione] | better | better | – | – |
| COc1cc(N(C)C)ncc1-c1nc2c(n1C(C)C)C1(C(=O)Nc3cc(Cl)ccc31)N(c1cc(Cl)cnc1C)C2=O (stereo not drawn) [Example 155, 6-chloro-5′-(5-chloro-2-methylpyridin-3-yl)-2′-(6-(dimethylamino)-4-methoxypyridin-3-yl)-3′-isopropyl-3′H-spiro[dihydroindole-3,4′-pyrrolo[3,4-d]imidazole]-2,6′(5′H)-dione] | better | better | – | – |
| COc1cc(C(C)C)ncc1-c1nc2c(n1C(C)C)C1(C(=O)Nc3cc(Cl)ccc31)N(c1cc(Cl)ccc1C)C2=O (stereo not drawn) [Example 164, 6-chloro-5′-(5-chloro-2-methylphenyl)-3′-isopropyl-2′-(6-isopropyl-4-methoxypyridin-3-yl)-3′H-spiro[dihydroindole-3,4′-pyrrolo[3,4-d]imidazole]-2,6′(5′H)-dione] | better | better | – | – |
| COc1cc(C(C)C)ncc1-c1nc2c(n1C(C)C)C1(C(=O)Nc3cc(Cl)ccc31)N(c1cc(Cl)cnc1C)C2=O (stereo not drawn) [Example 166, 6-chloro-5′-(5-chloro-2-methylpyridin-3-yl)-3′-isopropyl-2′-(6-isopropyl-4-methoxypyridin-3-yl)-3′H-spiro[dihydroindole-3,4′-pyrrolo[3,4-d]imidazole]-2,6′(5′H)-dione] | better | better | – | – |
| COc1cc(C2CC2)ncc1-c1nc2c(n1C(C)C)C1(C(=O)Nc3cc(Cl)ccc31)N(c1cc(F)cc(Cl)c1)C2=O (stereo not drawn) [Example 176, 6-chloro-5′-(3-chloro-5-fluorophenyl)-2′-(6-cyclopropyl-4-methoxypyridin-3-yl)-3′-isopropyl-3′H-spiro[dihydroindole-3,4′-pyrrolo[3,4-d]imidazole]-2,6′(5′H)-dione] | better | better | – | – |
| COc1nc(C#N)ncc1-c1nc2c(n1C(C)C)C1(C(=O)Nc3cc(Cl)ccc31)N(c1cc(Cl)ccc1C)C2=O (stereo not drawn) [Example 179] | – | – | 52.7 nM | 4.27 nM |
| COc1ncc(-c2nc3c(n2C(C)C)[C@]2(C(=O)Nc4cc(Cl)ccc42)N(c2cccc(Cl)c2)C3=O)c(OC)n1 [Example R-1, (R)-6-chloro-5′-(3-chlorophenyl)-2′-(2,4-dimethoxypyrimidin-5-yl)-3′-isopropyl-3′H-spiro[dihydroindole-3,4′-pyrrolo[3,4-d]imidazole]-2,6′(5′H)-dione] | – | – | 16700 nM | 618 nM |
| COc1ncc(-c2nc3c(n2C(C)C)[C@]2(C(=O)Nc4cc(Cl)ccc42)N(c2cc(Cl)ccc2C)C3=O)c(OC)n1 [Example R-2, (R)-6-chloro-5′-(5-chloro-2-methylphenyl)-2′-(2,4-dimethoxypyrimidin-5-yl)-3′-isopropyl-3′H-spiro[dihydroindole-3,4′-pyrrolo[3,4-d]imidazole]-2,6′(5′H)-dione] | – | – | 2770 nM | 117 nM |
| COc1ncc(-c2nc3c(n2C(C)C)[C@]2(C(=O)Nc4cc(Cl)ccc42)N(c2ccc(F)c(Cl)c2)C3=O)c(OC)n1 [Example R-3, (R)-6-chloro-5′-(3-chloro-4-fluorophenyl)-2′-(2,4-dimethoxypyrimidin-5-yl)-3′-isopropyl-3′H-spiro[dihydroindole-3,4′-pyrrolo[3,4-d]imidazole]-2,6′(5′H)-dione] | – | – | 16300 nM | 1190 nM |
| COc1cc(F)ccc1-c1nc2c(n1C(C)C)[C@]1(C(=O)Nc3cc(Cl)ccc31)N(c1cc(Cl)ccc1C)C2=O [Example R-4, (R)-6-chloro-5′-(5-chloro-2-methylphenyl)-2′-(4-fluoro-2-methoxyphenyl)-3′-isopropyl-3′H-spiro[dihydroindole-3,4′-pyrrolo[3,4-d]imidazole]-2,6′(5′H)-dione] | – | – | 2190 nM | 132 nM |
| COc1ccccc1-c1nc2c(n1C(C)C)[C@]1(C(=O)Nc3cc(Cl)ccc31)N(c1cc(Cl)ccc1C)C2=O [Example R-5, (R)-6-chloro-5′-(5-chloro-2-methylphenyl)-3′-isopropyl-2′-(2-methoxyphenyl)-3′H-spiro[dihydroindole-3,4′-pyrrolo[3,4-d]imidazole]-2,6′(5′H)-dione] | – | – | 1600 nM | 109 nM |
| COc1ccc(-c2nc3c(n2C(C)C)[C@]2(C(=O)Nc4cc(Cl)ccc42)N(c2cc(Cl)ccc2C)C3=O)c(OC)n1 [Example R-8, (R)-6-chloro-5′-(5-chloro-2-methylphenyl)-2′-(2,6-dimethoxypyridin-3-yl)-3′-isopropyl-3′H-spiro[dihydroindole-3,4′-pyrrolo[3,4-d]imidazole]-2,6′(5′H)-dione] | – | – | 2290 nM | 329 nM |
| COc1ccc(-c2nc3c(n2C(C)C)[C@]2(C(=O)Nc4cc(Cl)ccc42)N(c2cc(Cl)ccc2C)C3=O)c(OC)c1 [Example R-9, (R)-6-chloro-5′-(5-chloro-2-methylphenyl)-2′-(2,4-dimethoxyphenyl)-3′-isopropyl-3′H-spiro[dihydroindole-3,4′-pyrrolo[3,4-d]imidazole]-2,6′(5′H)-dione] | – | – | 2820 nM | 332 nM |
| COc1cnccc1-c1nc2c(n1C(C)C)[C@]1(C(=O)Nc3cc(Cl)ccc31)N(c1cc(Cl)ccc1C)C2=O [Example R-10, (R)-6-chloro-5′-(5-chloro-2-methylphenyl)-3′-isopropyl-2′-(3-methoxypyridin-4-yl)-3′H-spiro[dihydroindole-3,4′-pyrrolo[3,4-d]imidazole]-2,6′(5′H)-dione] | – | – | 2170 nM | 117 nM |
| COc1cc(OC)c(-c2nc3c(n2C(C)C)[C@]2(C(=O)Nc4cc(Cl)ccc42)N(c2cc(Cl)ccc2C)C3=O)cn1 [Example R-11, (R)-6-chloro-5′-(5-chloro-2-methylphenyl)-2′-(4,6-dimethoxypyridin-3-yl)-3′-isopropyl-3′H-spiro[dihydroindole-3,4′-pyrrolo[3,4-d]imidazole]-2,6′(5′H)-dione] | – | – | 1510 nM | 257 nM |
| COc1cc(C#N)ccc1-c1nc2c(n1C(C)C)[C@]1(C(=O)Nc3cc(Cl)ccc31)N(c1cc(Cl)ccc1C)C2=O [Example R-12, (R)-4-(6-chloro-5′-(5-chloro-2-methylphenyl)-3′-isopropyl-2,6′-dioxo-5′,6′-dihydro-3′H-spiro[dihydroindole-3,4′-pyrrolo[3,4-d]imidazole]-2′-yl)-3-methoxybenzonitrile] | – | – | 2440 nM | 368 nM |
| COc1ccc(C#N)cc1-c1nc2c(n1C(C)C)[C@]1(C(=O)Nc3cc(Cl)ccc31)N(c1cc(Cl)ccc1C)C2=O [Example R-13, (R)-3-(6-chloro-5′-(5-chloro-2-methylphenyl)-3′-isopropyl-2,6′-dioxo-5′,6′-dihydro-3′H-spiro[dihydroindole-3,4′-pyrrolo[3,4-d]imidazole]-2′-yl)-4-methoxybenzonitrile] | – | – | 1120 nM | 121 nM |
